From publication PMC9583322, “Vicinal Diaryl-Substituted Isoxazole and Pyrazole Derivatives with In Vitro Growth Inhibitory and In Vivo Antitumor Activity” (ACS Omega, 2022) come the findings set out here.

Usually IC50 stands for the concentration needed to halve the response being measured. By inhibition is commonly meant the change of the read-out against control, counted positive when it falls.

In series [1] the test system is hepatocellular carcinoma and breast cancer cell lines. Nature of the series: SRB cytotoxicity, cell line panel. The conditions noted are these: Homo sapiens, range over hepatocellular carcinoma and breast cancer cell lines. In kind it is cell-based. As for the experimental part: Mahlavu, FOCUS, SNU475 (1000 cell/well in 150 μL/well); Huh7, MCF7 (2500 cell/well in 150 μL/well); HepG2, Hep3B, SKBR3 (3000 cell/well in 150 μL/well); PLC-PRF-5, Hep40 (5000 cell/well in 150 μL/well); MDA-MB-231, MDA-MB-468, MCF10A (6000 cell/well in 150 μL/well); and ZR-75 (7500 cell/well in 150 μL/well) were cultured in 96-well plates and were inoculated in an incubator for 24 hours. The compounds were dissolved in dimethyl sulfoxide (DMSO) (Sigma, St Louis, MO) as a 20 mM stock solution. The treatment of cells with the compounds was done in a concentration range starting from 40 to 2.5 μM. The compounds which were below 2.5 μM were tested in a concentration range from 2.5 to 0.15 μM. End of the 72h compound treatment, the cells were fixed using 10% (v/v) trichloroacetic acid (MERCK) for an hour and washed with ddH2O, and left for air-drying. The fixed plates were stained with 50 μL of sulforhodamine B (SRB) solution (Sigma) at RT for 10 min. To remove unbound SRB dye, acetic acid was used to wash cells three times and left for drying. The protein-bound SRB was solubilized with 10 mM Tris-base (Sigma) and their absorbance was measured with a 96-well plate reader at 515 nm wavelength (ELx800, Biotek). The IC50 values of compounds were calculated in comparison with control group DMSO. Data with R^2 values larger than 0.9 are considered significant.

The test system of another series is PARP. Nature of the series: PARP cleavage western blotting. In kind it is cell-based, human. The conditions noted are these: 5 μM, 48 h; MCF7, MDA-MB-231, Mahlavu; except for 11 treated MCF7 and Huh7 cells. As for the experimental part:
Cells were treated for 5 μM compounds 11 and 85 or control (DMSO). The treated cells were collected with a scraper at end of 48 h incubation and lysates were prepared. Protein concentration was calculated with a BCA assay. The protein levels were analyzed using protein electrophoresis according to the manufacturer’s protocol for near-infrared (NIR) Western Blot analysis (Mini-PROTEAN Tetra Cell Systems, Bio-Rad). The samples (40 μg /well) were loaded onto TGX precast gels, and protein transfer from gel to an LF-PVDF membrane was done using Trans-Blot Turbo System (Bio-Rad). Primary antibodies (PARP, CST, #9532S) and Calnexin (CST, #2679) and secondary antibodies IRDye 680RD Goat Anti Rabbit (Li-Cor, # 92668071) and IRDye- 800CW Goat Anti Rabbit (Licor, # 926e32211) were used for western blotting, and the proteins were monitored in fluorescence system using Odyssey CLx- LICOR imaging system.[32]
A general note: In western blotting, separated proteins are transferred to a membrane and probed.

Series [2] deals with 22 cancer cells of the NCI 60 cell line panel. Nature of the series: NCI-60 single-dose screen, text summary. In kind it is cell-based. The conditions noted are these: against 22 cancer cells, read-out: growth inhibition (GI) values in the range. As for the experimental part:
Moreover, in vitro single-dose anticancer screening of 11 and 85 at 10 μM was performed utilizing the stable panel of 60 cell lines comprising 9 different cancer types at the National Cancer Institute (NCI) under the Developmental Therapeutics Program (Table S1).[31]

The subject of another series is Mahlavu xenografts. As to the kind of experiment: Mahlavu hepatocellular carcinoma xenograft. The series is classed as in vivo. The conditions noted are these: 40 mg/kg oral; for reduction in tumor volume: Mahlavu xenografts, nude mice, twice a week, 4 weeks; for Tolerability of the administered dose: in all studies (Mahlavu and MDA-MB-231 xenografts), no significant bodyweight loss, toxic effects or mortality. As for the experimental part:
Mahlavu cells (10 × 10^6 cells/mouse) prepared in 150 μL of DMEM were injected subcutaneously to the flank of 6–8 weeks old male athymic nude mice, while MDA-MB-231 cells (2 × 10^6cells/mouse) in 1:1 DMEM and matrigel were injected into mammary fat pad (MFP) of 6–8 weeks old female athymic nude mice. Tumor volume and mouse weight were measured twice a week using calipers. When the tumor volume reached ∼150 mm^3, xenografts were randomized into groups (6 mice per group), and the mice were administered subsequently with 11 or 85 (40 mg/kg in 0.5% hydroxypropyl methylcellulose plus 1% Tween 80) or vehicle by gavage feeding (3–4 days/week) for 4 weeks. The mice were sacrificed 30 days after initiation of the compound treatment and tumors were collected. Two-way ANOVA was performed for statistical significance by GraphPad Prism. All of the mice were maintained under a temperature-controlled environment with a 12 h light/dark cycle and received a standard diet and water ad libitum.

The test system of series [3] is Mahlavu, Huh7, MDA-MB-231, and MCF-7. As to the kind of experiment: Real-time cell electronic sensing (RT-CES). In kind it is cell-based, human. The conditions noted are these: 2.5, 5, 10 μM; compared to control (DMSO). The protocol:
(§1) To monitor the real-time cell growth of cells and cytotoxicity of compounds, the xCELLigence system (Roche Applied Sciences) was used. The cells were seeded onto 96-well E-Plate Mahlavu (1500 cell/well), MCF7, Huh7 (2500 cell/well), MDA-MB-231 (5000 cell/well), and MCF10A (6000 cell/well) in 100 μL of the medium/well. To examine the proliferation of cells, the cellular growth was monitored as cell index (CI) every 30 min for 24 h. When the cells were in a log growth phase, treatment with compounds 11 and 85 in 2.5, 5, and 10 μM concentrations was done, the CI values were recorded every 10 min for 24 h for controlling fast drug response and then every 30 min for the remaining 48 h for long-term dose response. After 72 h of incubation, the cellular growth ratios were calculated by CIDrug/CIDMSO.

In a further series the test system is MCF10A. As to the kind of experiment: Real-time cell electronic sensing (RT-CES). In kind it is cell-based, human. The conditions noted are these: 2.5, 5, 10 μM; immortalized normal breast epithelial cells. As for the experimental part:
as §1

Series [4] deals with Mahlavu, Huh7, MCF7, and MDA-MB-231. As to the kind of experiment: Annexin V flow cytometry. The series is classed as cell-based, human. The conditions noted are these: 5 μM; compared to the control group. The protocol:
Mahlavu, Huh7, MCF7, and MDA-MB-231 were seeded onto six-well plates. After 24 h, the cells were incubated with 5 μM compounds 11 and 85 by keeping DMSO as a negative control. […] PI and Annexin V dyes were added onto cell lysates for 15 min at room temperature in the dark to stain the cells for detecting apoptotic cell populations. The cells were analyzed by flow cytometry.
Background: In flow cytometry, cells or beads pass a laser one at a time.

In turn, `Cc1ccccc1COc1ccc(-c2noc(C)c2-c2ccc(Cl)cc2)cc1` [compound 11, 4-(4-Chlorophenyl)-5-methyl-3-(4-((2-methylbenzyl)oxy)phenyl)isoxazole] had an IC50 in series [1] of 0.7 to 9.5 µM. In addition, the PARP cleavage entry in the series with PARP was “increase in PARP cleavage”. For the same compound, the inhibition at 10 µM in series [2] lay in the range of 45 to 100%. In the series with Mahlavu xenografts, the “reduction in tumor volume” value was 85% and the “Tolerability of the administered dose” value is on record as “well tolerated”. Also, the “Real-time cell growth response, cancer cell lines” value in series [3] was “inhibition in the growth”. Also, the “Real-time cell growth response, MCF10A” value in the series on MCF10A is on record as “no difference in the growth”. Further, in series [4], the “percentage of apoptotic populations (Annexin V)” value was “increased”.

In turn, `Cc1ccccc1COc1ccc(-c2ccnn2-c2ccc(Cl)cc2)cc1` [compound 85, 1-(4-Chlorophenyl)-5-(4-((2-methylbenzyl)oxy)phenyl)-1H-pyrazole] showed an IC50 in series [1] of 0.7 to 9.5 µM. Also, the PARP cleavage result in the series on PARP is recorded as “increase in PARP cleavage”. For the same compound, the inhibition at 10 µM in series [2] lay within 45 to 100%. Besides, in the series on Mahlavu xenografts, the “reduction in tumor volume” value is 40% and the “Tolerability of the administered dose” value is on record as “well tolerated”. In series [3], the “Real-time cell growth response, cancer cell lines” value was “inhibition in the growth”. For the same compound, the “Real-time cell growth response, MCF10A” value in the series with MCF10A was “no difference in the growth”. Besides, the “percentage of apoptotic populations (Annexin V)” value in series [4] was “increased”.
